Patent publication US9889122B2, “Positive allosteric modulators of nicotinic acetylcholine receptor” (H. Lundbeck A/S, priority 2011, dated 2018)

The compounds below were run against T1, human α7 receptor (Homo sapiens, UniProt P36544) (assay: α7 NNR flux assay (FDSS Ca assay, Calcium-4 dye, positive allosteric modulation of acetylcholine response)). Conditions: human α7 receptor stably expressed in rat GH4C1 cell line; acetylcholine 20 μM (~EC100); % modulation relative to reference PNU-120596 set to 100%.
T1 construct: host or cells: rat GH4C1 cell line
T1 sequence (P36544 23-502): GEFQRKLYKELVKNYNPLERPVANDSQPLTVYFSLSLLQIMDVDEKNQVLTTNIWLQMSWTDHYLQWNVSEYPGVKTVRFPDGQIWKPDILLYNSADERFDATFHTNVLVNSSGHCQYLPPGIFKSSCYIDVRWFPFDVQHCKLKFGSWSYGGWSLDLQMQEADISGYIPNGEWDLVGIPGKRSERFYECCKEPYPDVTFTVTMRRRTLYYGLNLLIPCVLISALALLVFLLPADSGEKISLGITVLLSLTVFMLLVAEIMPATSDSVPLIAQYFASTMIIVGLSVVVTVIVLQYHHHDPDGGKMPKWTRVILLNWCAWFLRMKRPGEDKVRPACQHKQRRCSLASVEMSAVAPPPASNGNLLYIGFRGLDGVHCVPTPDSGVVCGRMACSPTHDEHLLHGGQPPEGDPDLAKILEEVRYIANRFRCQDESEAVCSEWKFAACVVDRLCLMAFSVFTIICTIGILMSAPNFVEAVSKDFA
Assay type: cell-based
Method: The nicotinic acetylcholine receptor α7 is a calcium-permeable ion channel, whose activity can be measured by over expression in mammalian cells or oocytes in this version of the assay, the human α7 receptor is stably expressed in the rat GH4C1 cell line. The assay was used to identify positive allosteric modulators (PAMs) of the α7 receptor. Activation of the channel was measured by loading cells with the calcium-sensitive fluorescent dye Calcium-4 (Assay kit from Molecular Devices), and then measuring real-time changes in fluorescence upon treatment with test compounds.
The cell line ChanClone GH4C1-nAChRalpha7 from Genionics was seeded from frozen stock in 384-well plates in culture media 2-3 days before experiment to form an approximately 80% confluent layer on the day of experiment.
Two or three days before the experiment the cells were seeded in 384 well plates from Greiner bio-one (781946, CELLCOAT, Poly-D-Lysine, black, μClear).
The cells were seeded in 384 well plates with 30 μL/well (30000 cells/well) while stirring the cell suspension or otherwise preventing the cells from precipitating.
The loading buffer was 5% v/v Calcium-4 Kit and 2.5 mM Probenecid in assay buffer.
Culture media were removed from the cell plates and 20 μL loading buffer was added in each well. The cell plates were placed in trays and incubated 90 minutes in the incubator (37° C.). Thereafter the plates were incubated 30 minutes at room temperature, still protected from light.
The assay buffer was HBSS with 20 mM HEPES, pH 7.4 and 3 mM CaCl2.
200 nL 10 mM compound solution in DMSO was diluted in 50 μL assay buffer. The final test concentrations in the cell plates were 20-10-5-2.5-1:25-0.625-0.312-0.156-0.078-0.039 μM. Assay buffer and 3 μM PNU-120596 were used for control.
The agonist acetylcholine was added to a final concentration of 20 μM (˜EC100).
In the FDSS7000 the Ex480-Em540 was measured with 1 second intervals. The baseline was made of 5 frames before addition of test compounds, and 95 frames more were made before addition of acetylcholine. The measurement stopped 30 frames after the 2nd addition. Raw data for each well were collected as “the maximum fluorescence count” in the interval 100-131 seconds and as “the average fluorescence count” in the interval 96-100 seconds. The positive allosteric modulation in the 2nd addition was the enhancement of agonist response with test compound compared to agonist alone.
Results were calculated as % modulation of test compound compared to the reference PNU-120596 set to 100%.

Row | Structure (SMILES) | EC50 [µM]
1 | COCc1ccc([C@H](C)NC(=O)[C@H]2C[C@@H]2c2ccccc2)cn1 [Compound 9, (1S,2S)-2-Phenyl-cyclopropanecarboxylic acid [(S)-1-(6-methoxymethyl-pyridin-3-yl)-ethyl]-amide] | 6.2
2 | COCCOc1ccc([C@H](C)NC(=O)[C@H]2C[C@@H]2c2ccccc2)cn1 [Compound 11, (1S,2S)-2-Phenyl-cyclopropanecarboxylic acid {(S)-1-[6-(2-methoxy-ethoxy)-pyridin-3-yl]-ethyl}-amide] | 3.8
3 | Cc1ccc([C@H](CO)NC(=O)[C@H]2C[C@@H]2c2ccccc2)cn1 [Compound 25, (1S,2S)-2-Phenyl-cyclopropanecarboxylic acid [(R)-2-hydroxy-1-(6-methyl-pyridin-3-yl)-ethyl]-amide] | 7.3
4 | O=C(N[C@@H](CO)c1ccc(OC2CCC2)nc1)[C@H]1C[C@@H]1c1cccc(F)c1 [Compound 41, (1S,2S)-2-(3-Fluoro-phenyl)-cyclopropanecarboxylic acid [(R)-1-(6-cyclobutoxy-pyridin-3-yl)-2-hydroxy-ethyl]-amide] | 1.6
5 | C[C@H](NC(=O)[C@H]1C[C@@H]1c1ccccc1)c1cnc2c(c1)OCO2 [Compound 15, (1S,2S)-2-Phenyl-cyclopropanecarboxylic acid ((S)-1-[1,3]dioxolo[4,5-b]pyridin-6-yl-ethyl)-amide] | 5.6
6 | CCOc1ccc([C@H](CO)NC(=O)[C@H]2C[C@@H]2c2ccccc2)nc1 [Compound 52, (1S,2S)-2-Phenyl-cyclopropanecarboxylic acid [(R)-1-(5-ethoxy-pyridin-2-yl)-2-hydroxy-ethyl]-amide] | 2
7 | Cc1ccc([C@H](C)NC(=O)[C@H]2C[C@@H]2c2ccccc2)cn1 [Compound 4, (1S,2S)-2-Phenyl-cyclopropanecarboxylic acid [(S)-1-(6-methyl-pyridin-3-yl)-ethyl]-amide] | 8.1
8 | O=C(N[C@@H](CO)c1ccc(O[C@H]2CCOC2)nc1)[C@H]1C[C@@H]1c1ccccc1 [Compound 44, (1S,2S)—N-[(1R)-2-hydroxy-1-[6-[(3S)-tetrahydrofuran-3-yl]oxy-3-pyridyl]ethyl]-2-phenyl-cyclopropanecarboxamide] | 4.6
9 | C[C@H](NC(=O)[C@H]1C[C@@H]1c1ccccc1)c1ccc(O[C@@H]2CCOC2)nc1 [Compound 14, (1S,2S)-2-Phenyl-cyclopropanecarboxylic acid [(S)-1-{6-[(R)-(tetrahydro-furan-3-yl)oxy]-pyridin-3-yl]-ethyl}-amide] | 1.6
10 | C[C@H](NC(=O)[C@H]1C[C@@H]1c1ccccc1)c1ccc(OCC(F)(F)F)nc1 [Compound 10, (1S,2S)-2-Phenyl-cyclopropanecarboxylic acid {(S)-1-[6-(2,2,2-trifluoro-ethoxy)-pyridin-3-yl]-ethyl}-amide] | 1.9
11 | [2H]C([2H])([2H])C([2H])([2H])Oc1ccc([C@H](CO)NC(=O)[C@H]2C[C@@H]2c2ccccc2)cn1 [Compound 38, (1S,2S)-2-Phenyl-cyclopropane carboxylic acid [(R)-1-(6-(1,1,2,2-d5)-ethoxy-pyridin-3-yl)-2-hydroxy-ethyl]-amide] | 0.97
12 | C[C@H](NC(=O)[C@H]1C[C@@H]1c1ccccc1)c1ccc(C#N)nc1 [Compound 5, (1S,2S)-2-Phenyl-cyclopropanecarboxylic acid [(S)-1-(6-cyano-pyridin-3-yl)-ethyl]-amide] | 7.7
13 | COc1ccc([C@H](C)NC(=O)[C@H]2C[C@@H]2c2ccccc2)cn1 [Compound 3, (S, 2S)-2-Phenyl-cyclopropanecarboxylic acid-[(S)-1-(6-methoxy-pyridin-3-yl)-ethyl]-amide] | 5.8
14 | C[C@H](NC(=O)[C@H]1C[C@@H]1c1ccccc1)c1cnc2c(c1)OCCO2 [Compound 16, (1S,2S)-2-Phenyl-cyclopropanecarboxylic acid [(S)-1-(2,3-dihydro-[1,4]dioxino[2,3-b]pyridin-7-yl)-ethyl]-amide] | 6.8
15 | O=C(N[C@@H](CO)c1ccc(C(F)(F)F)nc1)[C@H]1C[C@@H]1c1ccccc1 [Compound 22, (1S,2S)-2-Phenyl-cyclopropanecarboxylic acid [(R)-2-hydroxy-1-(6-trifluoromethyl-pyridin-3-yl)-ethyl]-amide] | 5.5
16 | C[C@H](NC(=O)[C@H]1C[C@@H]1c1ccccc1)c1ccc(C(F)(F)F)nc1 [Compound 6, (1S,2S)-2-Phenyl-cyclopropanecarboxylic acid [(S)-1-(6-trifluoromethyl-pyridin-3-yl)-ethyl]-amide] | 5.2
17 | CCOc1ccc([C@H](C)NC(=O)[C@H]2C[C@@H]2c2ccccc2)cn1 [Compound 7, (1S,2S)-2-Phenyl-cyclopropanecarboxylic acid [(S)-1-(6-ethoxy-pyridin-3-yl)-ethyl]-amide] | 0.96
18 | COC[C@H](NC(=O)[C@H]1C[C@@H]1c1ccccc1)c1ccc(OC2CCOCC2)nc1 [Compound 49, (1S,2S)-2-Phenyl-cyclopropanecarboxylic acid {(R)-2-methoxy-1-[6-(tetrahydro-pyran-4-yloxy)-pyridin-3-yl]-ethyl}-amide] | 1.2
19 | COc1ccc([C@H](CO)NC(=O)[C@H]2C[C@@H]2c2ccccc2)cn1 [Compound 24, (1S,2S)-2-Phenyl-cyclopropanecarboxylic acid [(R)-2-hydroxy-1-(6-methoxy-pyridin-3-yl)-ethyl]-amide] | 5.2

These reach a lower EC50. Values come first.

Row | EC50 [µM] | Structure (SMILES)
20 | 0.86 | CCCOc1ccc([C@H](CO)NC(=O)[C@H]2C[C@@H]2c2cccc(F)c2)cn1 [Compound 29, (1S,2S)-2-(3-Fluoro-phenyl)-cyclopropanecarboxylic acid [(R)-2-hydroxy-1-(6-propoxy-pyridin-3-yl)-ethyl]-amide]
21 | 0.71 | [2H]C([2H])([2H])COc1ccc([C@H](CO)NC(=O)[C@H]2C[C@@H]2c2ccc(F)cc2)cn1 [Compound 35, (1S,2S)-2-(4-Fluoro-phenyl)-cyclopropanecarboxylic acid [(R)-1-(6-(2,2,2-d3)-ethoxy-pyridin-3-yl)-2-hydroxy-ethyl]-amide]
22 | 0.7 | [2H]C([2H])(C)Oc1ccc([C@H](CO)NC(=O)[C@H]2C[C@@H]2c2ccc(F)cc2)cn1 [Compound 37, (1S,2S)-2-(4-Fluoro-phenyl)-cyclopropanecarboxylic acid [(R)-1-(6-(1,1-d2)-ethoxy-pyridin-3-yl)-2-hydroxy-ethyl]-amide]
23 | 0.7 | [2H]C([2H])([2H])C([2H])([2H])Oc1ccc([C@H](CO)NC(=O)[C@H]2C[C@@H]2c2ccc(F)cc2)cn1 [Compound 34, (1S,2S)-2-(4-Fluoro-phenyl)-cyclopropanecarboxylic acid [(R)-1-(6-(1,1,2,2,2-d5)-ethoxy-pyridin-3-yl)-2-hydroxy-ethyl]-amide]
24 | 0.64 | CCCOc1ccc([C@H](CO)NC(=O)[C@H]2C[C@@H]2c2ccccc2)cn1 [Compound 21, (1S,2S)-2-Phenyl-cyclopropanecarboxylic acid [(R)-2-hydroxy-1-(6-propoxy-pyridin-3-yl)-ethyl]-amide]
25 | 0.62 | CCOc1ccc([C@H](CO)NC(=O)[C@H]2C[C@@H]2c2ccc(F)cc2)cn1 [Compound 28, (1S,2S)-2-(4-Fluoro-phenyl)-cyclopropanecarboxylic acid [(R)-1-(6-ethoxy-pyridin-3-yl)-2-hydroxy-ethyl]-amide]
26 | 0.53 | [2H]C([2H])(C)Oc1ccc([C@H](CO)NC(=O)[C@H]2C[C@@H]2c2cccc(F)c2)cn1 [Compound 32, (1S,2S)-2-(3-Fluoro-phenyl)-cyclopropanecarboxylic acid [(R)-1-(6-(1,1-d2)-ethoxy-pyridin-3-yl)-2-hydroxy-ethyl]-amide]
27 | 0.46 | CCOc1ccc([C@H](COC)NC(=O)[C@H]2C[C@@H]2c2ccccc2)cn1 [Compound 46, (1S,2S)-2-Phenyl-cyclopropanecarboxylic acid [(R)-1-(6-ethoxy-pyridin-3-yl)-2-methoxy-ethyl]-amide]
28 | 0.39 | CC(C)Oc1ccc([C@H](CO)NC(=O)[C@H]2C[C@@H]2c2ccccc2)cn1 [Compound 26, (1S,2S)-2-Phenyl-cyclopropanecarboxylic acid [(R)-2-hydroxy-1-(6-isopropoxy-pyridin-3-yl)-ethyl]-amide]
29 | 0.39 | CCOc1ccc([C@H](CO)NC(=O)[C@H]2C[C@@H]2c2cccc(F)c2)cn1 [Compound 27, (1S,2S)-2-(3-Fluoro-phenyl)-cyclopropanecarboxylic acid [(R)-1-(6-ethoxy-pyridin-3-yl)-2-hydroxy-ethyl]-amide]
